Assay results from US20180194762A1 (Pharmacyclics LLC, priority 2017, published 2018).
Read-outs that look alike come from different tables or passages of the source.

Assays:
Assay type in all cases: biochemical
TEC = target: T1, TEC (Homo sapiens, UniProt P42680); assay: Inhibition of a panel of kinases (in vitro HotSpot kinase assay, 33P-ATP, 1 μM ATP); conditions: for IC50: HotSpot kinase assay, 1 μM ATP; for TEC/Btk: ratio of TEC IC50 to Btk IC50 (selectivity)
T1 sequence (P42680 1-631): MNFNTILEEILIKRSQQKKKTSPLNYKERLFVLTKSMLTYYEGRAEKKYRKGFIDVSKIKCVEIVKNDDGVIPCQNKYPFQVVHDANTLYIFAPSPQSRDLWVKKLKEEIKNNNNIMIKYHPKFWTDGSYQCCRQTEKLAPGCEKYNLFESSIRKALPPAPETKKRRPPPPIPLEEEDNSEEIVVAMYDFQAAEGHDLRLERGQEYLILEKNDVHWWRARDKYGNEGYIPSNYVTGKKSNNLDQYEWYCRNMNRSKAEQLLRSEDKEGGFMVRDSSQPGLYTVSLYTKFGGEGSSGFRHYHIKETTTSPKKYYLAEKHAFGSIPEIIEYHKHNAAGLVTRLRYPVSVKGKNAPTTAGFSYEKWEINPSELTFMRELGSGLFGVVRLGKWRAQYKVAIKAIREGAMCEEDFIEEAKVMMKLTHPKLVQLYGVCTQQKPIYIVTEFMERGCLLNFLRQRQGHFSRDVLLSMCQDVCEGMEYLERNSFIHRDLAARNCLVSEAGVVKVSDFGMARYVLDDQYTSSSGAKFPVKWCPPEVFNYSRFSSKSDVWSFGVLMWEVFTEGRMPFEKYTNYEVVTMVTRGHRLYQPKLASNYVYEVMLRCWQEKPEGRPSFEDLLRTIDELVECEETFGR
Procedure, shortened: (§1)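 At 1 μM ATP spiked with 33P-ATP, substrate phosphorylation by the purified enzymes gives the extent of inhibition.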

panel of kinases = target: T2, panel of kinases (Homo sapiens, UniProt P51813); assay: Inhibition of a panel of kinases (in vitro HotSpot kinase assay, 33P-ATP, 1 μM ATP), other kinases; conditions: BMX wild-type, read-out: BMX-WT IC50
T2 sequence (P51813 1-675): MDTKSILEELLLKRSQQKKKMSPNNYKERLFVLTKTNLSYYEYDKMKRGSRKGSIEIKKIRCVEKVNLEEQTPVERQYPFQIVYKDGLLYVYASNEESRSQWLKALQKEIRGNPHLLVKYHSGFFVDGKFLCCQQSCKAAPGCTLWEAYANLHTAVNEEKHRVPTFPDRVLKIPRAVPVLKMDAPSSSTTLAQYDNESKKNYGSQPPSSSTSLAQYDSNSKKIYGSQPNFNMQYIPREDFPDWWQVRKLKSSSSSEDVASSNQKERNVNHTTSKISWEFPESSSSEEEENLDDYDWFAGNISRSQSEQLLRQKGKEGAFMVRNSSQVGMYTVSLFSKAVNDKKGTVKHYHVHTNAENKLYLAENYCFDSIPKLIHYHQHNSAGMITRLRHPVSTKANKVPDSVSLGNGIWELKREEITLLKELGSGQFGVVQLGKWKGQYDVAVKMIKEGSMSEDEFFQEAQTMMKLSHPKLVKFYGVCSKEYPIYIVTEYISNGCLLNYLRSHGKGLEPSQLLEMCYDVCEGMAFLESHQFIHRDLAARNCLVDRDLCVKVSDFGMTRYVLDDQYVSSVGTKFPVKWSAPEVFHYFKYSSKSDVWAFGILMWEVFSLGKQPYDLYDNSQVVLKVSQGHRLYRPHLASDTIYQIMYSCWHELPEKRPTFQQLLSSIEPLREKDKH
Procedure, shortened: as §1

Btk = target: T3, Btk (Homo sapiens, UniProt Q06187); assay: Btk in vitro inhibitory activity (one of Method A TR-FRET, Method B electrophoretic mobility shift, Method C radiometric filter binding)
T3 construct: purified from insect cells as a full-length construct containing a N-terminal 6X-His tag; His6 (N); made in house; host or cells: insect cells (Method C)
T3 sequence (Q06187 whole entry): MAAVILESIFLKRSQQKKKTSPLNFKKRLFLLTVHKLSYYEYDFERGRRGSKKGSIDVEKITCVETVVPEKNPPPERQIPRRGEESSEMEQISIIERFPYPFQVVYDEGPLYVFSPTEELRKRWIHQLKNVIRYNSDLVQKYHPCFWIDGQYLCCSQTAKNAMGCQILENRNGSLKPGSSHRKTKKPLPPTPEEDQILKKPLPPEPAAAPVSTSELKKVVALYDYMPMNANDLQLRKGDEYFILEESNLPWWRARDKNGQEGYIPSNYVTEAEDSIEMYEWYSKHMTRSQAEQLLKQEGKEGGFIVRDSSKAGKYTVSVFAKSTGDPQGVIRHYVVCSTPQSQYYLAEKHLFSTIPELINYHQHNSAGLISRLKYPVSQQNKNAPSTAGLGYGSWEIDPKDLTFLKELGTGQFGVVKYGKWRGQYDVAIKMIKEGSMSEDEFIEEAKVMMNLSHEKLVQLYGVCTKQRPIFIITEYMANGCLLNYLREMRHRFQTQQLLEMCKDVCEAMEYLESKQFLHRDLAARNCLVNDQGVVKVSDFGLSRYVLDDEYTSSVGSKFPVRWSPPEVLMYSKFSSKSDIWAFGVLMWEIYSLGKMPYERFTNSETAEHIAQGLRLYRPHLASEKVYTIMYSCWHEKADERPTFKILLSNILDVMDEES
Procedure, shortened: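 Three alternative formats were used. A radiometric filter-binding read used 8 nM full-length His-BTK with 0.2 mg/mL poly(Glu-Tyr) 4:1 (C); microfluidic separation of 1 μM FAM-peptide by 1 nM BTK gave IC50 from 12-point curves (B); TR-FRET at Km ATP, 0.5 nM Btk, gave Ki(app)-derived IC50 (A).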

[1] = wild-type Btk, read-out: Btk-WT IC50
[2] = method is one of A, B or C, not stated which, read-out: IC50 values against Btk

Row | IC50 (TEC) | TEC/Btk (TEC) | IC50 (panel of kinases) | IC50 (Btk; [1]) | IC50 (Btk; [2]) | Compound
1 | > 10000 nM | >100 | > 10000 nM | 210 nM |  | CC(C)(C)c1nc(C(=O)NC2(c3ccc(-c4ccnc5[nH]nc(N[C@@H]6CCCNC6)c45)cc3F)CC2)no1 [Example 121, 5-tert-butyl-N-{1-[2-fluoro-4-(3-{[(3R)-piperidin-3-yl]amino}-1H-pyrazolo[3,4-b]pyridin-4-yl)phenyl]cyclopropyl}-1,2,4-oxadiazole-3-carboxamide]
2 | 220 nM | 2294 | 305 nM | 0.0959 nM | < 10 nM | C=CC(=O)NC1CCN(c2n[nH]c3nccc(-c4ccc(CNC(=O)c5nc(C(C)(C)C)no5)c(F)c4)c23)CC1 [Example 179, 3-tert-butyl-N-[(2-fluoro-4-{3-[4-(prop-2-enamido)piperidin-1-yl]-1H-pyrazolo[3,4-b]pyridin-4-yl}phenyl)methyl]-1,2,4-oxadiazole-5-carboxamide]
3 | 1480 nM |  | 1330 nM | 3.99 nM |  | CC(=O)N[C@@H]1CCN(c2n[nH]c3nccc(-c4ccc([C@@H](C)NC(=O)c5cc(C(C)(C)O)on5)c(F)c4)c23)C1 [Example 349, N-[(1R)-1-(4-{3-[(3R)-3-acetamidopyrrolidin-1-yl]-1H-pyrazolo[3,4-b]pyridin-4-yl}-2-fluorophenyl)ethyl]-5-(2-hydroxypropan-2-yl)-1,2-oxazole-3-carboxamide]
4 | 1920 nM | >100 | 449 nM | > 10000 nM |  | C=CC(=O)N1CC[C@@H](Nc2n[nH]c3nccc(-c4ccc(NC(=O)c5ccc(C(C)(C)C)cc5)c(F)c4)c23)C1 [Compound 45]
5 | 110 nM | 579 | 115 nM | 0.19 nM | < 10 nM | C=CC(=O)N1CCC[C@@H](Nc2n[nH]c3nccc(-c4ccc(CNC(=O)c5noc(C(C)(C)C)n5)c(F)c4)c23)C1 [Example 85, 5-tert-butyl-N-{[2-fluoro-4-(3-{[(3R)-1-(prop-2-enoyl)piperidin-3-yl]amino}-1H-pyrazolo[3,4-b]pyridin-4-yl)phenyl]methyl}-1,2,4-oxadiazole-3-carboxamide]
6 | 70 nM | 39 | 89 nM | 1.78 nM |  | C=CC(=O)N1CC[C@@H](Nc2n[nH]c3nccc(-c4ccc(CNC(=O)c5ccc(OC)cc5)c(F)c4)c23)C1 [Compound 49, (R)—N-(4-(3-((1-acryloylpyrrolidin-3-yl)amino)-1H-pyrazolo[3,4-b]pyridin-4-yl)-2-fluorobenzyl)-4-methoxybenzamide]
7 | 776 nM |  | 1350 nM | 0.237 nM |  | C[C@H]1CC[C@@H](Nc2n[nH]c3nccc(-c4ccc(CNC(=O)c5nc(C(C)(C)C)no5)c(F)c4)c23)CN1C(=O)N(C)C [Example 391, (2S,5R)-5-{[4-(4-{[(3-tert-butyl-1,2,4-oxadiazole-5-carbonyl)amino]methyl}-3-fluorophenyl)-1H-pyrazolo[3,4-b]pyridin-3-yl]amino}-N,N,2-trimethylpiperidine-1-carboxamide]
8 | 1890 nM |  | 661 nM | 63.3 nM |  | CC(=O)N[C@@H]1CCN(c2n[nH]c3nccc(-c4ccc(CNC(=O)c5nc6ccccc6o5)c(F)c4)c23)C1 [Example 394, N-[(4-{3-[(3R)-3-acetamidopyrrolidin-1-yl]-1H-pyrazolo[3,4-b]pyridin-4-yl}-2-fluorophenyl)methyl]-1,3-benzoxazole-2-carboxamide]
9 | 45.5 nM |  | 107 nM | 0.171 nM |  | C=CC(=O)N1CC[C@@H](Nc2n[nH]c3nccc(-c4ccc(CNC(=O)c5coc(C(C)(C)C)n5)c(F)c4)c23)C1 [Example 295, 2-tert-butyl-N-{[2-fluoro-4-(3-{[(3R)-1-(prop-2-enoyl)pyrrolidin-3-yl]amino}-1H-pyrazolo[3,4-b]pyridin-4-yl)phenyl]methyl}-1,3-oxazole-4-carboxamide]
10 | 33.4 nM | 430 | 30.7 nM | 0.0776 nM |  | C=CC(=O)N[C@@H]1CCN(c2n[nH]c3nccc(-c4ccc(CNC(=O)c5cc(C(C)C)no5)c(F)c4)c23)C1 [Example 184, N-{[2-fluoro-4-(3-{(3R)-3-[(prop-2-enoyl)amino]pyrrolidin-1-yl}-1H-pyrazolo[3,4-b]pyridin-4-yl)phenyl]methyl}-3-(propan-2-yl)-1,2-oxazole-5-carboxamide]
11 | > 10000 nM | >10000 | > 10000 nM | > 1000 nM |  | CC(=O)N1CCC(Nc2n[nH]c3nccc(-c4ccc([C@@H](C)NC(=O)c5cc(C(C)(C)O)on5)cc4)c23)CC1 [Example 204, N-[(1R)-1-(4-{3-[(1-acetylpiperidin-4-yl)amino]-1H-pyrazolo[3,4-b]pyridin-4-yl}phenyl)ethyl]-5-(2-hydroxypropan-2-yl)-1,2-oxazole-3-carboxamide]
12 | 8830 nM |  | 3030 nM | 26.4 nM |  | C=CC(=O)N[C@H]1CCCC[C@@H]1Nc1n[nH]c2nccc(-c3ccc(CNC(=O)c4cc(C(C)(C)C)on4)c(F)c3)c12 [Example 318, 5-tert-butyl-N-({2-fluoro-4-[3-({(1S,2S)-2-[(prop-2-enoyl)amino]cyclohexyl}amino)-1H-pyrazolo[3,4-b]pyridin-4-yl]phenyl}methyl)-1,2-oxazole-3-carboxamide]
13 | 3040 nM |  | 471 nM | 106 nM |  | C=CC(=O)N1CCC(Nc2n[nH]c3nccc(-c4ccc(CNCc5noc(C(C)(C)C)n5)c(F)c4)c23)C1 (stereo not shown) [Example 310, 1-[3-({4-[4-({[(5-tert-butyl-1,2,4-oxadiazol-3-yl)methyl]amino}methyl)-3-fluorophenyl]-1H-pyrazolo[3,4-b]pyridin-3-yl}amino)pyrrolidin-1-yl]prop-2-en-1-one]
14 | 7860 nM | 771 | > 10000 nM | 10.2 nM |  | CC(C)(C)c1cc(C(=O)NCc2ccc(-c3ccnc4[nH]nc(N[C@@H]5CCNC5)c34)cc2F)no1 [Example 63, 5-tert-butyl-N-{[2-fluoro-4-(3-{[(3R)-pyrrolidin-3-yl]amino}-1H-pyrazolo[3,4-b]pyridin-4-yl)phenyl]methyl}-1,2-oxazole-3-carboxamide]
15 | 1060 nM | 549 | 1040 nM | 1.93 nM | < 10 nM | C[C@H]1CC[C@@H](Nc2n[nH]c3nccc(-c4ccc(CNC(=O)c5cc(C(C)(C)C)on5)c(F)c4)c23)CN1C(=O)N(C)C [Example 145, (2S,5R)-5-{[4-(4-{[(5-tert-butyl-1,2-oxazol-3-yl)formamido]methyl}-3-fluorophenyl)-1H-pyrazolo[3,4-b]pyridin-3-yl]amino}-N,N,2-trimethylpiperidine-1-carboxamide]
16 | 950 nM | 82 | 1980 nM | 11.6 nM |  | CC(C)(C)c1nc(C(=O)NCc2ccc(-c3ccnc4[nH]nc(N[C@@H]5CCNC5)c34)cc2F)no1 [Compound 2, (R)-5-(tert-butyl)-N-(2-fluoro-4-(3-(pyrrolidin-3-ylamino)-1H-pyrazolo[3,4-b]pyridin-4-yl)benzyl)-1,2,4-oxadiazole-3-carboxamide]
